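Tested at 5 concentrations; 48 h exposure; 96-well plates; endpoints linearly interpolated, else capped at highest concentration. Here, GI50 denotes the concentration required for 50% inhibition of growth. TGI marks complete inhibition of growth.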
Tests used:
Experiment in all cases: inhibition of tumour cell growth, NCI panel, 48 h
CAKI-1 renal = test system: CAKI-1 renal
HCC-2998 colon = test system: HCC-2998 colon
HCT-15 colon = test system: HCT-15 colon
HOP-92 NSCLC = test system: HOP-92 NSCLC
LOX IMVI melanoma = test system: LOX IMVI melanoma
MALME-3M melanoma = test system: MALME-3M melanoma
NCI-H226 lung = test system: NCI-H226 lung
T-47D breast = test system: T-47D breast

Compound | GI50 (CAKI-1 renal) | TGI (CAKI-1 renal) | GI50 (HCC-2998 colon) | TGI (HCC-2998 colon) | GI50 (HCT-15 colon) | TGI (HCT-15 colon) | GI50 (HOP-92 NSCLC) | TGI (HOP-92 NSCLC) | GI50 (LOX IMVI melanoma) | TGI (LOX IMVI melanoma) | GI50 (MALME-3M melanoma) | TGI (MALME-3M melanoma) | GI50 (NCI-H226 lung) | TGI (NCI-H226 lung) | GI50 (T-47D breast) | TGI (T-47D breast)
O=C1c2ccccc2-c2cn(Cc3ccccc3)c3cccc(c23)C1c1cccnc1 (stereo unspecified) | 2.74 µM | > 50 µM | 11.4 µM | > 50 µM | 2.54 µM | > 50 µM | 2.74 µM | > 50 µM | 2.76 µM | > 50 µM | 10.2 µM | > 50 µM | > 50 µM | > 50 µM | 2.32 µM | > 50 µM
ClC/C=C/CSc1ncnc2nc[nH]c12 | > 100 µM | > 100 µM | > 100 µM | > 100 µM | > 100 µM | > 100 µM | > 100 µM | > 100 µM | > 100 µM | > 100 µM | > 100 µM | > 100 µM | > 100 µM | > 100 µM | > 100 µM | > 100 µM
COC(=O)[C@]12CC[C@@H](C)[C@H](C)[C@@H]1C1=CC[C@@H]3[C@@]4(C)C[C@@H](OC(C)=O)[C@H](OC(C)=O)[C@@](C)(COC(C)=O)[C@@H]4[C@H](O)C[C@@]3(C)[C@]1(C)CC2 | 0.93 µM | > 100 µM | 2.81 µM | > 100 µM | 0.43 µM | > 100 µM | 3.9 µM | > 100 µM | 0.54 µM | > 100 µM | 3.82 µM | 74.8 µM | 5.09 µM | > 100 µM | 1.03 µM | 8.04 µM
COc1oc(C2C/C(=C/C(C)=C/C(C)=C/C(C)=C/c3ccc([N+](=O)[O-])cc3)CO2)c(C)c(=O)c1C (stereo unspecified) |  | 30.9 µM |  | > 100 µM |  | > 56.6 µM |  | 40 µM |  | 23.4 µM |  | 16.2 µM |  | > 54.3 µM |  | 6.81 µM
CSc1ccc(-c2cn3ccsc3n2)cc1 | 24.9 µM | > 100 µM | 20.9 µM | > 100 µM | 9.76 µM | > 100 µM | 6.81 µM | > 78.9 µM | 8.6 µM | > 100 µM | 22.1 µM | > 72.6 µM | 24.8 µM | 98.1 µM | 8.53 µM | > 100 µM
NS(=O)(=O)c1cccc(Nc2cc(-c3ccc(F)cc3)[nH]n2)c1 | 12.4 µM | > 25 µM | > 25 µM | > 25 µM | 19.3 µM | > 25 µM | > 25 µM | > 25 µM | 20.7 µM | > 25 µM | > 25 µM | > 25 µM | > 25 µM | > 25 µM | > 23.3 µM | > 25 µM
CCOC(=O)Nc1cc2c(c(N)n1)N=C(c1ccc(Cl)cc1Cl)CN2 |  | 33.7 µM |  | 2.6 µM |  | 9.02 µM |  | 44.7 µM |  | 44.8 µM |  | 29.6 µM |  | 18 µM |  | 43.1 µM
COc1cc(F)c(F)c(Nc2ccc(I)cc2F)c1NS(=O)(=O)C1(CC(O)CO)CC1 (stereo unspecified) | 10.2 µM | 54.4 µM | 10.8 µM | 25.5 µM | 14.6 µM | 47.4 µM | 1.13 µM | 19.6 µM | 4.92 µM | 17.6 µM | 1.02 µM | 8.02 µM | 15.2 µM | 49.2 µM | 15.7 µM | > 75.5 µM
COC(=O)C(=O)C(C(=O)C(=O)Nc1cc(C)ccc1C)c1nc2ccccc2[nH]c1=O (stereo unspecified) |  | > 100 µM |  | > 100 µM |  | > 100 µM |  | > 100 µM |  | > 100 µM |  | > 100 µM |  | > 100 µM |  | > 100 µM
COc1cc2c(c3oc4c(O)cccc4c(=O)c13)CC(C(C)(O)CCl)O2 (stereo unspecified) |  | 7.68 µM |  | 8.35 µM |  | > 27.2 µM |  | 10.5 µM |  | 0.026 µM |  | 8.12 µM |  | 24.2 µM |  | 13.5 µM
Oc1ccccc1/C=N\NC(=S)Nc1ccc(F)cc1 | 1.57 µM | > 24.3 µM | 3.28 µM | 28.5 µM | 0.529 µM | > 100 µM | 0.962 µM | > 100 µM | 0.708 µM | > 79.7 µM | 1.2 µM | 8.35 µM | 2.76 µM | > 32.5 µM | 3.34 µM | 60.1 µM
CC/C(=C/c1ccc(OC)cc1)[N+](=O)[O-] | 1.67 µM | 3.33 µM | 1.89 µM | 3.42 µM | 1.48 µM | 3.08 µM | 1.74 µM | 3.43 µM | 1.47 µM | 2.98 µM | 1.78 µM | 3.77 µM | 2.07 µM | 3.86 µM | 1.82 µM | 5.95 µM
O=C(NCCN1CCOCC1)c1cc2c(Oc3ccc(NC(=O)C4(C(=O)Nc5ccc(F)cc5)CC4)cc3)ccnc2[nH]1 | 13.7 µM | > 100 µM | 15.3 µM | 51.9 µM | 12.5 µM | > 100 µM | 1.82 µM | 16.5 µM | 2.05 µM | 39.6 µM | 1.1 µM | 14.4 µM | 3.73 µM | 50.3 µM | 4.43 µM | 46 µM
